Results from patent EP4755887A1, “POLYCYCLIC FUSED-RING BTK DEGRADATION AGENT AND USE THEREOF IN MEDICINE” (Haisco Pharmaceutical Group Co., Ltd., priority 2023, dated 2025).
Where two headings read alike, the source gives them in different places.

Legend:
Caco2 permeability test = assay type: in vitro ADME; conditions: human, Caco-2 monolayer, pH 7.4
Protocol: In the experiment, a monolayer of Caco-2 cells was used, and incubated in triplicate in a 96-well Transwell plate. A transport buffer solution (HBSS, 10 mM HEPES, pH 7.4 ± 0.05) containing the compound of the present invention (2 µM) or the control compound digoxin (10 µM), nadolol (2 µM) or metoprolol (2 µM) was added to the administration end hole on the apical side or basal side. A DMSO-containing transport buffer solution was added to the corresponding receiving end hole. After incubation for 2 hours at 37°C ± 1°C, the cell plate was removed, and an appropriate amount of samples was taken from both the apical side and basal side and transferred to a new 96-well plate. Subsequently, acetonitrile containing an internal standard was added to precipitate the protein. The samples were analysed using LC MS/MS, and the concentrations of the compound of the present invention and the control compound were determined. Concentration data were used to calculate apparent permeability coefficients for transport from the apical side to the basal side, and from the basal side to the apical side of the cell monolayer, and thus to calculate the efflux ratio. The integrity of the cell monolayer after 2 hours of incubation was evaluated by leakage of Lucifer Yellow.

BTK = BTK (Homo sapiens, UniProt Q06187); experiment: Detection of BTK degradation in Mino cells; assay type: cell-based; conditions: read-out: DC50 values for BTK degradation in Mino cells
BTK, sequence (Q06187 whole entry): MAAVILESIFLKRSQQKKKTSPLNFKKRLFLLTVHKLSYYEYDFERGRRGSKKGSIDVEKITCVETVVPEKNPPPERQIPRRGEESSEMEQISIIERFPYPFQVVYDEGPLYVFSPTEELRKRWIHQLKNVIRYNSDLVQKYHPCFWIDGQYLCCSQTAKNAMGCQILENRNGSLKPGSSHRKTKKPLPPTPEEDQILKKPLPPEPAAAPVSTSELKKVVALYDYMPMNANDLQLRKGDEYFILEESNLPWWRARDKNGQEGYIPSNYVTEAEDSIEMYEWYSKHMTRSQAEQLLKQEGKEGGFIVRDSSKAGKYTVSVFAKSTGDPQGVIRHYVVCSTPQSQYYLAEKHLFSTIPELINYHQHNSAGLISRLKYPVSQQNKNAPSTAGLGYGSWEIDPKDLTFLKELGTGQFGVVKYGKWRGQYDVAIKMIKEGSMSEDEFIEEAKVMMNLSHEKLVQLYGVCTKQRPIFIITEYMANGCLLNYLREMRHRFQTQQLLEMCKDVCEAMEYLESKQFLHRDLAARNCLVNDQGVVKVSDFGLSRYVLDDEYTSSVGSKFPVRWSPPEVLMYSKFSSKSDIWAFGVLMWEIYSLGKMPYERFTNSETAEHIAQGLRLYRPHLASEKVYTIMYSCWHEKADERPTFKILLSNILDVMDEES

[1] = Pharmacokinetic test in rats; assay type: in vivo; conditions: male, SD, rat, po, plasma, i.g. (10 mg/kg)
Protocol: Experimental objective: In this experiment, a single dose of the test compound was administered to SD rats via intravenous administration and intragastric gavage, and the concentration of the test compound in plasma of the rats was measured to evaluate the pharmacokinetic profile of the test compound in the rats.
Experimental animals: Male SD rats, 200-220 g, 6-8 weeks old, 6 rats/compound, purchased from Chengdu Ddossy Experimental Animals Co., Ltd.
Experimental method: On the day of the experiment, 6 SD rats were randomly grouped according to their body weights. The animals were fasted with water available for 12 to 14 h one day before the administration, and were fed 4 h after the administration.
Sampling: Before and after the administration, 0.06-0.15 mL of blood was taken from the orbits under isoflurane anaesthesia, and placed in an EDTAK2 centrifuge tube. Centrifugation was carried out at 5000 rpm at 4°C for 10 min, and the plasma was collected.
The plasma collection time points for PO groups were 0, 5 min, 15 min, 30 min, 1 h, 2 h, 4 h, 7 h, 24 h, and 48 h.
The plasma collection time points for IV groups were 0, 5 min, 15 min, 30 min, 1 h, 2 h, 4 h, 7 h, and 24 h.
Before analysis and detection, all samples were stored at -60°C. The samples were analysed quantitatively by LC-MS/MS.

BTK L528W = BTK L528W (Homo sapiens, UniProt Q06187, L528W)
BTK L528W, sequence (Q06187 whole entry L528W): as the sequence (Q06187 whole entry) above, with L528W counted along it

TMD-8 cells = experiment: TMD-8 cell proliferation inhibitory activity test; assay type: cell-based; conditions: Homo sapiens, TMD8, 72 hours, CellTiter-Glo, read-out: IC50 values for inhibiting TMD-8 cell proliferation
Protocol: TMD-8 is a human lymphoma cell line that expresses BTK protein and is used to evaluate the efficacy of compounds. […] The cells were seeded into a 96-well culture plate (Biosharp, BS-MP-96W) at a density of 3,000 cells per well. […] Following incubation, 50 µL of a detection solution (CellTiter-Glo®, Promega, G7573) was added to each well, and the plate was uniformly mixed for 2 minutes and incubated at room temperature for 10 minutes. The chemiluminescence reading was then measured using a microplate reader (Molecular Devices, SpectraMax Paradigm). The inhibition rate of cell proliferation by the compounds was calculated according to Equation (1), where RLU compound represents the readout from the compound-treated well, RLU control represents the readout from the DMSO vehicle control well, and RLU blank represents the readout from the cell-free well. Data analysis was performed using Graphpad Prism 8.0 software. The concentration-response curve was generated by fitting the data to a four-parameter equation, and the IC50 values for the compound's inhibition of cell proliferation were calculated. Inh% = 100%−(RLUcompound−RLUblank)/(RLUcontrol−RLUblank)*100% [formula] Table 1. IC50 values for inhibiting TMD-8 cell proliferation

[2] = Mino cells, 6 hours, automated western blot
[3] = 5 nM concentration, REC-1 BTK L528W cells, 6 hours

SMILES: CN1CCN([C@@H]2CCCN(c3cnc(C(N)=O)c(Nc4ccc(C5CCN(CC6CCN(c7ccc(C(=O)N[C@H]8CCC(=O)NC8=O)nc7)CC6)CC5)cc4)n3)C2)C1=O [Control compound 1, reference compound]
- Papp A→B at 2 h, 2 µM (Caco2 permeability test): 0.101 ×10⁻⁶ cm/s
- Papp B→A at 2 h, 2 µM (Caco2 permeability test): 5.27 ×10⁻⁶ cm/s
- efflux ratio at 2 h, 2 µM (Caco2 permeability test): 52.5

SMILES: CN1CCN([C@@H]2CCCN(c3cnc(C(N)=O)c(Nc4ccc(N5CCC(CN6CCN7c8cc(F)c(C9CCC(=O)NC9=O)cc8CC[C@H]7C6)C(F)(F)C5)cc4)n3)C2)C1=O (single isomer, unassigned) [Compound 30]
- DC50 (BTK; [2]): < 10 nM

SMILES: CN1CCN([C@@H]2CCCN(c3nnc(C(N)=O)c(Nc4ccc(N5CCC(CN6CCN7c8cc(F)c(C9CCC(=O)NC9=O)cc8CC[C@@H]7C6)CC5)c(F)c4)n3)C2)C1=O (some centres unmarked) [Compound 77]
- AUC(0-t) ([1]; Vehicle 2): > 1000 ng·h/mL
- BTK degradation rate % (BTK L528W; [3]): >90%
- Papp A→B at 2 h, 2 µM (Caco2 permeability test): 0.984 ×10⁻⁶ cm/s
- Papp B→A at 2 h, 2 µM (Caco2 permeability test): 4.89 ×10⁻⁶ cm/s
- efflux ratio at 2 h, 2 µM (Caco2 permeability test): 4.97

SMILES: CN1CCN([C@@H]2CCCN(c3cnc(C(N)=O)c(Nc4ccc(N5CCC(CN6CCN7c8cc(F)c(C9CCC(=O)NC9=O)cc8CC[C@@H]7C6)CC5)cc4)n3)C2)C1=O (some centres unmarked) [Compound 12]
- IC50 (TMD-8 cells): < 20 nM
- BTK degradation rate % (BTK L528W; [3]): >90%
- Papp A→B at 2 h, 2 µM (Caco2 permeability test): 1.18 ×10⁻⁶ cm/s
- Papp B→A at 2 h, 2 µM (Caco2 permeability test): 4.71 ×10⁻⁶ cm/s
- efflux ratio at 2 h, 2 µM (Caco2 permeability test): 3.99
- DC50 (BTK; [2]): < 10 nM

SMILES: CN1CCN([C@@H]2CCCN(c3cnc(C(N)=O)c(Nc4ccc(N5CCC(CN6CCN7c8cc(F)c(N9CCC(=O)NC9=O)cc8CC[C@@H]7C6)CC5)cc4)n3)C2)C1=O [Compound 22]
- AUC(0-t) ([1]; Vehicle 2): > 1000 ng·h/mL
- Papp A→B at 2 h, 2 µM (Caco2 permeability test): 2.38 ×10⁻⁶ cm/s
- Papp B→A at 2 h, 2 µM (Caco2 permeability test): 4.44 ×10⁻⁶ cm/s
- efflux ratio at 2 h, 2 µM (Caco2 permeability test): 1.87
- DC50 (BTK; [2]): < 10 nM

SMILES: CN1CCN([C@@H]2CCCN(c3nnc(C(N)=O)c(Nc4ccc(N5CCC(CN6CCN7c8cc(F)c(C(=O)N[C@H]9CCC(=O)NC9=O)cc8CC[C@@H]7C6)CC5)cc4)n3)C2)C1=O [Compound 47]
- BTK degradation rate % (BTK L528W): >90%
- DC50 (BTK): < 10 nM

SMILES: CN1CCN([C@@H]2CCCN(c3cnc(C(N)=O)c(Nc4ccc(N5CCC(N6CCN7c8cc(F)c(C(=O)N[C@H]9CCC(=O)NC9=O)cc8CC[C@H]7C6)CC5)cc4)n3)C2)C1=O [Trifluoroacetate of compound 36]
- DC50 (BTK): < 10 nM

SMILES: CN1CCN([C@@H]2CCCN(c3cnc(C(N)=O)c(Nc4ccc(N5CCC(CN6CCN7c8cc(F)c(C9CCC(=O)NC9=O)cc8CC[C@H]7C6)C(F)(F)C5)cc4)n3)C2)C1=O (single isomer, unassigned) [Compound 29]
- DC50 (BTK; [2]): < 10 nM

SMILES: CN1CCN([C@@H]2CCCN(c3cnc(C(N)=O)c(Nc4ccc(N5CCC6(CC5)CC(CN5CCN7c8cc(F)c(C9CCC(=O)NC9=O)cc8CC[C@H]7C5)C6)cc4)n3)C2)C1=O (some centres unmarked) [Compound 14]
- AUC(0-t) ([1]; Vehicle 2): > 1000 ng·h/mL
- Papp A→B at 2 h, 2 µM (Caco2 permeability test): 0.35 ×10⁻⁶ cm/s
- Papp B→A at 2 h, 2 µM (Caco2 permeability test): 0.867 ×10⁻⁶ cm/s
- efflux ratio at 2 h, 2 µM (Caco2 permeability test): 2.47
- DC50 (BTK; [2]): < 10 nM

SMILES: [2H]C([2H])([2H])N1CCN([C@@H]2CCCN(c3cnc(C(N)=O)c(Nc4ccc(N5CCC(CN6CCN7c8cc(F)c(N9CCC(=O)NC9=O)cc8CC[C@@H]7C6)CC5)cc4)n3)C2)C1=O [Compound 66]
- BTK degradation rate % (BTK L528W): >80%
- DC50 (BTK): < 10 nM

SMILES: COCCN1CCN([C@@H]2CCCN(c3cnc(C(N)=O)c(Nc4ccc(N5CCC(CN6CCN7c8cc(F)c(C9CCC(=O)NC9=O)cc8CC[C@H]7C6)CC5)cc4)n3)C2)C1=O (some centres unmarked) [Compound 84]
- BTK degradation rate % (BTK L528W; [3]): >70%

SMILES: CN1CCN([C@@H]2CCCN(c3cnc(C(N)=O)c(Nc4ccc(N5CCC6(CC5)CC(N5CCN7c8cc(F)c(C9CCC(=O)NC9=O)cc8CC[C@H]7C5)C6)cc4)n3)C2)C1=O (some centres unmarked) [Compound 31]
- DC50 (BTK; [2]): < 10 nM

SMILES: [2H]C([2H])([2H])N1CCN([C@@H]2CCCN(c3cnc(C(N)=O)c(Nc4ccc(N5CCC(CN6CCN7c8cc(F)c(C(=O)N[C@H]9CCC(=O)NC9=O)cc8CC[C@H]7C6)CC5)cc4)n3)C2)C1=O [Compound 67]
- BTK degradation rate % (BTK L528W): >90%
- DC50 (BTK): < 10 nM

SMILES: CN1CCN([C@@H]2CCCN(c3cnc(C(N)=O)c(Nc4ccc(N5CCC(CN6CCN7c8cc(F)c(C9CCC(=O)NC9=O)cc8CC[C@H]7C6)CC5)cc4)n3)C2)C1=O (some centres unmarked) [Compound 11]
- IC50 (TMD-8 cells): < 20 nM
- bioavailability ([1]; Vehicle 1): > 50%
- AUC(0-t) ([1]; Vehicle 1): > 1000 ng·h/mL
- Papp A→B at 2 h, 2 µM (Caco2 permeability test): 1.75 ×10⁻⁶ cm/s
- Papp B→A at 2 h, 2 µM (Caco2 permeability test): 3.74 ×10⁻⁶ cm/s
- efflux ratio at 2 h, 2 µM (Caco2 permeability test): 2.14
- DC50 (BTK; [2]): < 10 nM

SMILES: [2H]C([2H])([2H])N1CCN([C@@H]2CCCN(c3cnc(C(N)=O)c(Nc4ccc(N5CCC(CN6CCN7c8cc(F)c(C(=O)N[C@H]9CCC(=O)NC9=O)cc8CC[C@@H]7C6)CC5)cc4)n3)C2)C1=O [Compound 68]
- BTK degradation rate % (BTK L528W): >90%
- DC50 (BTK): < 10 nM

SMILES: NC(=O)c1nnc(N2CCC[C@@H](N3CCN(CC4CC4)C3=O)C2)nc1Nc1ccc(N2CCC(CN3CCN4c5cc(F)c(C6CCC(=O)NC6=O)cc5CC[C@H]4C3)CC2)cc1 (some centres unmarked) [Trifluoroacetate of compound 93]
- BTK degradation rate % (BTK L528W; [3]): >70%

SMILES: CN1CCN([C@@H]2CCCN(c3cnc(C(N)=O)c(Nc4ccc(N5CCC6(CC5)CC(N5CCN7c8cc(F)c(C9CCC(=O)NC9=O)cc8CC[C@@H]7C5)C6)cc4)n3)C2)C1=O (some centres unmarked) [Compound 32]
- DC50 (BTK; [2]): < 10 nM

SMILES: COCCN1CCN([C@@H]2CCCN(c3nnc(C(N)=O)c(Nc4ccc(N5CCC(CN6CCN7c8cc(F)c(C9CCC(=O)NC9=O)cc8CC[C@H]7C6)CC5)cc4)n3)C2)C1=O (some centres unmarked) [Compound 82]
- BTK degradation rate % (BTK L528W; [3]): >85%

SMILES: CN1CCN([C@@H]2CCCN(c3cnc(C(N)=O)c(Nc4ccc(N5CCC6(CC5)CC(CN5CCN7c8cc(F)c(C(=O)N[C@H]9CCC(=O)NC9=O)cc8CC[C@@H]7C5)C6)cc4)n3)C2)C1=O [Compound 50]
- DC50 (BTK): < 10 nM

SMILES: NC(=O)c1nnc(N2CCC[C@@H](N3CCN(C4CC4)C3=O)C2)nc1Nc1ccc(N2CCC(CN3CCN4c5cc(F)c(C6CCC(=O)NC6=O)cc5CC[C@H]4C3)CC2)cc1 (some centres unmarked) [Compound 89]
- BTK degradation rate % (BTK L528W; [3]): >80%

SMILES: CN1CCN([C@@H]2CCCN(c3cnc(C(N)=O)c(Nc4ccc(N5CCC(CN6CCN7c8cc(F)c(C9CCC(=O)NC9=O)cc8CC[C@@H]7C6)C(F)(F)C5)cc4)n3)C2)C1=O (single isomer, unassigned) [Compound 28]
- DC50 (BTK; [2]): < 10 nM

SMILES: CN1CCN([C@@H]2CCCN(c3cnc(C(N)=O)c(Nc4ccc(N5CCC(CN6CCN7c8cc(F)c(C9CCC(=O)NC9=O)cc8CC[C@@H]7C6)C(F)(F)C5)cc4)n3)C2)C1=O (single isomer, unassigned) [Compound 27]
- DC50 (BTK; [2]): < 10 nM

SMILES: COCCN1CCN([C@@H]2CCCN(c3nnc(C(N)=O)c(Nc4ccc(N5CCC(CN6CCN7c8cc(F)c(C9CCC(=O)NC9=O)cc8CC[C@H]7C6)CC5)c(F)c4)n3)C2)C1=O (some centres unmarked) [Compound 83]
- BTK degradation rate % (BTK L528W; [3]): >85%

SMILES: [2H]C([2H])([2H])N1CCN([C@@H]2CCCN(c3nnc(C(N)=O)c(Nc4ccc(N5CCC(CN6CCN7c8cc(F)c(C(=O)N[C@H]9CCC(=O)NC9=O)cc8CC[C@@H]7C6)CC5)cc4)n3)C2)C1=O [Compound 61]
- BTK degradation rate % (BTK L528W): >90%
- DC50 (BTK): < 10 nM

SMILES: CN1CCN([C@@H]2CCCN(c3cnc(C(N)=O)c(Nc4ccc(N5CCC6(CC5)CC(N5CCN7c8cc(F)c(C(=O)N[C@H]9CCC(=O)NC9=O)cc8CC[C@H]7C5)C6)cc4)n3)C2)C1=O [Compound 34]
- BTK degradation rate % (BTK L528W): >90%
- DC50 (BTK): < 10 nM
